According to US5110904A (Abbott Laboratories, priority 1990, dated 1992):
Starred links: 1 amine or outer side, 2 acyl side, 3 side chain; linkers in the order of their positions; H or OH if unused. Non-standard residues stand in square brackets, D forms with d. Residues, ends and D or L forms follow the SMILES beside them. Groups on a side chain read outwards from the residue. *: point of attachment. dNMe1Nal = CN[C@H](Cc1cccc2ccccc12)C(=O)O; dPhe(4-Cl) = N[C@H](Cc1ccc(Cl)cc1)C(=O)O; d1Nal = N[C@H](Cc1cccc2ccccc12)C(=O)O; d2Nal = N[C@H](Cc1ccc2ccccc2c1)C(=O)O; dLys(iPr) = CC(C)NCCCC[C@@H](N)C(=O)O; d(hCit) = NC(=O)NCCCC[C@@H](N)C(=O)O; Lys(iPr) = CC(C)NCCCC[C@H](N)C(=O)O; NMeY = CN[C@@H](Cc1ccc(O)cc1)C(=O)O; dBta = N[C@H](Cc1csc2ccccc12)C(=O)O; Piperazinyl(4-Me) = CN1CCN(*)CC1; d3Pal = N[C@H](Cc1cccnc1)C(=O)O; Cha = N[C@@H](CC1CCCCC1)C(=O)O; d2Thi = N[C@H](Cc1cccs1)C(=O)O; NMeL = CN[C@@H](CC(C)C)C(=O)O; Nicotinoyl = O=C(c1cccnc1)*; NMeS = CN[C@@H](CO)C(=O)O; CO = O=C([*:1])[*:2]; Sar = CNCC(=O)O; For = O=C*

These compounds were tested against T1, LHRH receptors (Rattus norvegicus, UniProt P30969) (assay: Radioligand receptor binding assay, rat pituitary membranes). Conditions: radioiodinated [D-Leu6-des Gly10]-LHRH ethyl amide 50 pM, 2 hours at 4° C., read-out: Receptor Binding pkI (converted).
T1 sequence (P30969 1-327): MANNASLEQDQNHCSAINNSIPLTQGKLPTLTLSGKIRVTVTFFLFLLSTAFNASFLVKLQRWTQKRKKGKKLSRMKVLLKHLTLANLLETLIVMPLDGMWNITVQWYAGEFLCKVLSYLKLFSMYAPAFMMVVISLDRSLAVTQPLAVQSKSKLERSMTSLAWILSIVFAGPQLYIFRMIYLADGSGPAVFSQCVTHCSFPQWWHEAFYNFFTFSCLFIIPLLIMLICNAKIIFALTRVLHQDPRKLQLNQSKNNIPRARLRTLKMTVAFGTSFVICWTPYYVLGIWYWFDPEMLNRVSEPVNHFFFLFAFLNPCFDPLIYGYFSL
Experimental: The radioligand (50 pM), receptors, and compounds to be tested are coincubated for 2 hours at 4° C. Bound ligand is separated from free ligand via centrifugation and aspiration.

Row | Ki | SMILES
1 | 0.479 nM | CC(=O)N[C@H](Cc1ccc2ccccc2c1)C(=O)N[C@H](Cc1ccc(Cl)cc1)C(=O)N[C@H](Cc1cccnc1)C(=O)N(C)[C@@H](CO)C(=O)N[C@@H](CCCCNC(=O)c1cccnc1)C(=O)N[C@H](CCCCNC(=O)c1cccnc1)C(=O)N[C@@H](CC(C)C)C(=O)N[C@@H](CCCCNC(C)C)C(=O)N1CCC[C@H]1C(=O)N[C@H](C)C(N)=O [Ex. 35, N-Ac-D-2-Nal-D-4-Cl-Phe-D-3-Pal-N-Me-Ser-Lys-(N-epsilon-nicotinyl)-D-Lys-(N-epsilon-nicotinyl)-Leu-Lys-(N-epsilon-isopropyl)-Pro-D-AlaNH2] (Ac-[d2Nal][dPhe(4-Cl)][d3Pal][NMeS]K(Nicotinoyl)[dK](Nicotinoyl)L[Lys(iPr)]P[dA]-NH2)
2 | 0.0339 nM | CC(=O)N[C@H](Cc1ccc(Cl)cc1)C(=O)N[C@H](Cc1ccc(Cl)cc1)C(=O)N[C@H](Cc1csc2ccccc12)C(=O)N[C@@H](CO)C(=O)N(C)[C@@H](Cc1ccc(O)cc1)C(=O)N[C@H](CCCCN)C(=O)N[C@@H](CC(C)C)C(=O)N[C@@H](CCCN=C(N)N)C(=O)N1CCC[C@H]1C(=O)N[C@H](C)C(N)=O [Ex. 54, N-Ac-D-4-Cl-Phe-D-4-Cl-Phe-D-3-Bal-Ser-N-Me-Tyr-D-Lys-Leu-Arg-Pro-D-AlaNH2] (Ac-[dPhe(4-Cl)][dPhe(4-Cl)][dBta]S[NMeY][dK]LRP[dA]-NH2)
3 | 0.0219 nM | CC(=O)N[C@H](Cc1ccc(Cl)cc1)C(=O)N[C@H](Cc1ccc(Cl)cc1)C(=O)N[C@H](Cc1cn(C=O)c2ccccc12)C(=O)N[C@@H](CO)C(=O)N(C)[C@@H](Cc1ccc(O)cc1)C(=O)N[C@H](CCCCN)C(=O)N[C@@H](CC(C)C)C(=O)N[C@@H](CCCNC(=N)N)C(=O)N1CCC[C@H]1C(=O)N[C@H](C)C(N)=O [Ex. 55, N-Ac-D-4-Cl-Phe-D-4-Cl-Phe-D-Trp(formyl)-Ser-N-Me-Tyr-D-Lys-Leu-Arg-Pro-D-AlaNH2] (Ac-[dPhe(4-Cl)][dPhe(4-Cl)][dW](For)S[NMeY][dK]LRP[dA]-NH2)
4 | 0.676 nM | CC(=O)N[C@H](Cc1ccc(Cl)cc1)C(=O)N[C@H](Cc1ccc(Cl)cc1)C(=O)N(C)[C@H](Cc1cccc2ccccc12)C(=O)N[C@@H](CO)C(=O)N(C)[C@@H](Cc1ccc(O)cc1)C(=O)N[C@H](CCCCN)C(=O)N[C@@H](CC(C)C)C(=O)N[C@@H](CCCNC(=N)N)C(=O)N1CCC[C@H]1C(=O)N[C@H](C)C(N)=O [Ex. 56, N-Ac-D-4-Cl-Phe-D-4-Cl-Phe-N-Me-D-1-Nal-Ser-N-Me-Tyr-D-Lys-Leu-Arg-Pro-D-AlaNH2] (Ac-[dPhe(4-Cl)][dPhe(4-Cl)][dNMe1Nal]S[NMeY][dK]LRP[dA]-NH2)
5 | 0.372 nM | CC(=O)N[C@H](Cc1ccc(Cl)cc1)C(=O)N[C@H](Cc1ccc(Cl)cc1)C(=O)N[C@H](Cc1ccc2ccccc2c1)C(=O)N[C@@H](CO)C(=O)N(C)[C@@H](Cc1ccc(O)cc1)C(=O)N[C@H](CCCCNC(=O)c1cccnc1)C(=O)N(C)[C@@H](CC(C)C)C(=O)N[C@@H](CCCNC(=N)N)C(=O)N1CCC[C@H]1C(=O)N[C@H](C)C(N)=O [Ex. 57, N-Ac-D-4-Cl-Phe-D-4-Cl-Phe-D-2-Nal-Ser-N-Me-Tyr-D-Lys(N-epsilon-nicotinyl)- N-Me-Leu-Arg-Pro-D-AlaNH2] (Ac-[dPhe(4-Cl)][dPhe(4-Cl)][d2Nal]S[NMeY][dK](Nicotinoyl)[NMeL]RP[dA]-NH2)
6 | 0.00871 nM | CC(=O)N[C@H](Cc1ccc(Cl)cc1)C(=O)N[C@H](Cc1ccc(Cl)cc1)C(=O)N[C@H](Cc1cccs1)C(=O)N[C@@H](CO)C(=O)N[C@@H](Cc1ccc(O)cc1)C(=O)N[C@H](CCCCN)C(=O)N[C@@H](CC(C)C)C(=O)N[C@@H](CCCNC(=N)N)C(=O)N1CCC[C@H]1C(=O)N(C)CC(N)=O [Ex. 58, N-Ac-D-4-Cl-Phe-D-4-Cl-Phe-D-2-Thia-Ser-Tyr-D-Lys-Leu-Arg-Pro-SarNH2] (Ac-[dPhe(4-Cl)][dPhe(4-Cl)][d2Thi]SY[dK]LRP[Sar]-NH2)
7 | 0.0977 nM | CC(=O)N[C@H](Cc1ccc(Cl)cc1)C(=O)N[C@H](Cc1ccc(Cl)cc1)C(=O)N[C@H](Cc1cccc2ccccc12)C(=O)N[C@@H](CO)C(=O)N(C)[C@@H](Cc1ccc(O)cc1)C(=O)N[C@H](CCCCNC(N)=O)C(=O)N[C@@H](CC(C)C)C(=O)N[C@@H](CCCNC(=N)N)C(=O)N1CCC[C@H]1C(=O)N[C@H](C)C(N)=O [Ex. 59, N-Ac-D-4-Cl-Phe-D-4-Cl-Phe-D-1-Nal-Ser-N-Me-Tyr-D-H-Cit-Leu-Arg-Pro-D-AlaNH2] (Ac-[dPhe(4-Cl)][dPhe(4-Cl)][d1Nal]S[NMeY][d(hCit)]LRP[dA]-NH2)
8 | 0.0229 nM | CC(=O)N[C@H](Cc1ccc(Cl)cc1)C(=O)N[C@H](Cc1ccc(Cl)cc1)C(=O)N[C@H](Cc1csc2ccccc12)C(=O)N[C@@H](CO)C(=O)N(C)[C@@H](Cc1ccc(O)cc1)C(=O)N[C@H](CCCCNC(C)C)C(=O)N[C@@H](CC(C)C)C(=O)N[C@@H](CCCNC(=N)N)C(=O)N1CCC[C@H]1C(=O)N[C@H](C)C(N)=O [Ex. 60, N-Ac-D-4-Cl-Phe-D-4-Cl-Phe-D-3-Bal-Ser-N-Tyr-D-Lys(N-epsilon-isopropyl)-Leu-Arg-Pro-D-AlaNH2] (Ac-[dPhe(4-Cl)][dPhe(4-Cl)][dBta]S[NMeY][dLys(iPr)]LRP[dA]-NH2)
9 | 0.049 nM | CC(=O)N[C@H](Cc1ccc2ccccc2c1)C(=O)N[C@H](Cc1ccc(Cl)cc1)C(=O)N[C@H](Cc1cccnc1)C(=O)N[C@@H](CO)C(=O)N(C)[C@@H](Cc1ccc(O)cc1)C(=O)N[C@H](Cc1cccnc1)C(=O)N[C@@H](CC(C)C)C(=O)N[C@@H](CCCCNC(C)C)C(=O)N1CCC[C@H]1C(=O)N[C@H](C)C(N)=O [Ex. 61, N-Ac-D-2-Nal-D-4-Cl-Phe-D-3-Pal-Ser-N-Me-Tyr-D-3-Pal-Leu-Lys(N-epsilon-isopropyl)-Pro-D-AlaNH2] (Ac-[d2Nal][dPhe(4-Cl)][d3Pal]S[NMeY][d3Pal]L[Lys(iPr)]P[dA]-NH2)
10 | 0.0102 nM | CC(=O)N(C)CC(=O)N[C@H](Cc1ccc(Cl)cc1)C(=O)N[C@H](Cc1csc2ccccc12)C(=O)N[C@@H](CO)C(=O)N(C)[C@@H](Cc1ccc(O)cc1)C(=O)N[C@H](CCCCNC(=O)c1cccnc1)C(=O)N[C@@H](CC(C)C)C(=O)N[C@@H](CCCCNC(C)C)C(=O)N1CCC[C@H]1C(=O)N[C@H](C)C(N)=O [Ex. 64, N-Ac-Sar-D-4-Cl-Phe-D-3-Bal-Ser-N-Me-Tyr-D-Lys(N-epsilon-nicotinyl)-Leu-Lys(N-epsilon-isopropyl)-Pro-D-Ala-NH2] (Ac-[Sar][dPhe(4-Cl)][dBta]S[NMeY][dK](Nicotinoyl)L[Lys(iPr)]P[dA]-NH2)
11 | 0.0141 nM | CC(=O)N[C@H](Cc1ccc2ccccc2c1)C(=O)N[C@H](Cc1ccc(Cl)cc1)C(=O)N[C@H](Cc1cccnc1)C(=O)N[C@@H](CO)C(=O)N(C)[C@@H](Cc1ccc(O)cc1)C(=O)N[C@H](CCCCNC(=O)c1cccnc1)C(=O)N[C@@H](CC1CCCCC1)C(=O)N[C@@H](CCCNC(=N)N)C(=O)N1CCC[C@H]1C(=O)N[C@H](C)C(N)=O [Ex. 66, N-Ac-D-2-Nal-D-4-Cl-Phe-D-3-Pal-Ser-N-Me-Tyr-D-Lys(N-epsilon-nicotinyl)-Cha-Arg-Pro-D-AlaNH2] (Ac-[d2Nal][dPhe(4-Cl)][d3Pal]S[NMeY][dK](Nicotinoyl)[Cha]RP[dA]-NH2)
12 | 0.12 nM | CC(=O)N[C@H](Cc1ccc(Cl)cc1)C(=O)N[C@H](Cc1ccc(Cl)cc1)C(=O)N[C@H](Cc1cccs1)C(=O)N[C@@H](CO)C(=O)N(C)[C@@H](Cc1ccc(O)cc1)C(=O)N[C@H](CCCCNC(=O)c1cccnc1)C(=O)N(C)[C@@H](CC(C)C)C(=O)N[C@@H](CCCNC(=N)N)C(=O)N1CCC[C@H]1C(=O)N[C@H](C)C(N)=O [Ex. 68, N-Ac-D-4-Cl-Phe-D-4-Cl-Phe-D-2-Thia-Ser-N-Me-Tyr-D-Lys(N-epsilon-nicotinyl)-N-Me-Leu-Arg-Pro-D-Ala-NH2] (Ac-[dPhe(4-Cl)][dPhe(4-Cl)][d2Thi]S[NMeY][dK](Nicotinoyl)[NMeL]RP[dA]-NH2)
13 | 0.012 nM | CC(=O)N[C@H](Cc1ccc2ccccc2c1)C(=O)N[C@H](Cc1ccc(Cl)cc1)C(=O)N[C@H](Cc1cccnc1)C(=O)N[C@@H](CO)C(=O)N(C)[C@@H](Cc1ccc(O)cc1)C(=O)N[C@H](CCCCNC(=O)N1CCN(C)CC1)C(=O)N[C@@H](CC(C)C)C(=O)N[C@@H](CCCCNC(C)C)C(=O)N1CCC[C@H]1C(=O)N[C@H](C)C(N)=O [Ex. 70, N-Ac-D-2--Nal-D-4-Cl-Phe-D-3-Pal-Ser-N-Me-Tyr-D-Lys(N-epsilon-CO-NMePip)-Leu-Lys(N-epsilon-isopropyl)-Pro-D-AlaNH2] (Ac-[d2Nal][dPhe(4-Cl)][d3Pal]S[NMeY][dK]([CO-Piperazinyl(4-Me)])L[Lys(iPr)]P[dA]-NH2)

These compounds were tested on LH concentration in the blood (assay: In vivo LH inhibition in male castrate rats). Conditions: AUC of log(LHt/LHi) over 24 hours, 30 ug/kg subcutaneous bolus.
Set-up: species or system rat
Experimental: The compound to be tested is administered at 30 μg/kg subcutaneously by bolus injection to male castrate rats and blood samples are collected periodically over 24 hours. The AUC (area under the curve) of the LH supression data as a function of time is calculated using the formula log (LHt /LHi) wherein LHt is the LH concentration in the blood at time t and LHi is the initial baseline value for the concentration of LH in the blood. The AUC values are negative numbers.

Row | SMILES | AUC (24 hr. after 30 ug/kg)
14 | CC(=O)N[C@H](Cc1ccc2ccccc2c1)C(=O)N[C@H](Cc1ccc(Cl)cc1)C(=O)N[C@H](Cc1cccnc1)C(=O)N(C)[C@@H](CO)C(=O)N[C@@H](CCCCNC(=O)c1cccnc1)C(=O)N[C@H](CCCCNC(=O)c1cccnc1)C(=O)N[C@@H](CC(C)C)C(=O)N[C@@H](CCCCNC(C)C)C(=O)N1CCC[C@H]1C(=O)N[C@H](C)C(N)=O [Ex. 35, N-Ac-D-2-Nal-D-4-Cl-Phe-D-3-Pal-N-Me-Ser-Lys-(N-epsilon-nicotinyl)-D-Lys-(N-epsilon-nicotinyl)-Leu-Lys-(N-epsilon-isopropyl)-Pro-D-AlaNH2] (Ac-[d2Nal][dPhe(4-Cl)][d3Pal][NMeS]K(Nicotinoyl)[dK](Nicotinoyl)L[Lys(iPr)]P[dA]-NH2) | -510
15 | CC(=O)N[C@H](Cc1ccc(Cl)cc1)C(=O)N[C@H](Cc1ccc(Cl)cc1)C(=O)N[C@H](Cc1cccc2ccccc12)C(=O)N[C@@H](CO)C(=O)N(C)[C@@H](Cc1ccc(O)cc1)C(=O)N[C@H](CCCCN)C(=O)N[C@@H](CC(C)C)C(=O)N[C@@H](CCCNC(=N)N)C(=O)N1CCC[C@H]1C(=O)N[C@H](C)C(N)=O [Ex. 46, N-Ac-D-4-Cl-Phe-D-4-Cl-Phe-D-1-Nal-Ser-N-Me-Tyr-D-Lys-Leu-Arg-Pro-D-AlaNH2] (Ac-[dPhe(4-Cl)][dPhe(4-Cl)][d1Nal]S[NMeY][dK]LRP[dA]-NH2) | -1513
